Experiments:
human mAChR M1 [1] = molecular target: T1, human mAChR M1 (Homo sapiens, UniProt P11229); assay: mAChR M1 cell-based functional assay (calcium mobilization), PAM mode: increase in the EC20 acetylcholine response
T1 sequence (P11229 1-460): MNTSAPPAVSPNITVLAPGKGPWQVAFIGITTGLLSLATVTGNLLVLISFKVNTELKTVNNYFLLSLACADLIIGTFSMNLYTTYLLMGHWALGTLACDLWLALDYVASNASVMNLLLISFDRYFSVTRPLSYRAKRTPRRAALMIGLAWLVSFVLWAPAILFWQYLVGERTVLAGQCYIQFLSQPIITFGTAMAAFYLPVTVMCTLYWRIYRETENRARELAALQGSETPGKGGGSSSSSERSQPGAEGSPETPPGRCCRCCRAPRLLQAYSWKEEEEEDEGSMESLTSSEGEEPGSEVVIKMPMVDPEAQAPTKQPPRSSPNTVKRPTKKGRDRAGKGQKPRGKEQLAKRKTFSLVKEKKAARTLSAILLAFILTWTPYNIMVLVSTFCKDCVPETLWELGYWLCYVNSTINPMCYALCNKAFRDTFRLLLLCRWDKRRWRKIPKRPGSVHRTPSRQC
Outline: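 PAM readout is the concentration-dependent rise in the EC20 acetylcholine calcium signal, fitted to a four-parameter logistic (EC50, Emax). Compounds were preincubated from 4 s before ACh at 144 s (EC20) and 230 s (EC80). hM1-expressing CHO-K1 cells loaded with Fluo-4, FDSS ratio read.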

human mAChR M1 [2] = molecular target: T1, human mAChR M1; assay: mAChR M1 cell-based functional assay (calcium mobilization), agonist mode: compound alone, Emax relative to acetylcholine maximum; conditions: for Agonist Activity Human M1 EC50 / EC50: human mAChR M1; for Emax: relative to the maximum for acetylcholine
Outline: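 Agonist activity is the concentration-dependent rise in intracellular calcium (Fluo-4, 1 Hz read) after compound addition, measured before any acetylcholine was added, in stable hM1 CHO-K1 cells. Curves were 11-point, 1:3 dilutions fitted by four-parameter logistic. Emax is given as a fraction of maximal acetylcholine response.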

[2H]C1([2H])c2ncccc2C(=O)N1Cc1c(F)cc(-c2cc(F)c(F)c3nn(C)cc23)cc1F [Compound 105, 6-(4-(6,7-difluoro-2-methyl-2H-indazol-4-yl)-2,6-difluorobenzyl)-6,7-dihydro-5H-pyrrolo[3,4-b]pyridin-5-one-7,7-d2]
EC50 (human mAChR M1 [1]): 195 nM
Emax (human mAChR M1 [1]): 27%
Agonist Activity Human M1 EC50 (human mAChR M1 [2]): Inactive
Emax (human mAChR M1 [2]): 2%

[2H]C1([2H])c2ncccc2C(=O)N1Cc1c(F)cc(-c2cc(F)c(F)c3nn(C([2H])([2H])[2H])cc23)cc1F [Compound 106, 6-(4-(6,7-difluoro-2-(methyl-d3)-2H-indazol-4-yl)-2,6-difluorobenzyl)-6,7-dihydro-5H-pyrrolo[3,4-b]pyridin-5-one-7,7-d2]
EC50 (human mAChR M1 [1]): 140 nM
Emax (human mAChR M1 [1]): 30%
Agonist Activity Human M1 EC50 (human mAChR M1 [2]): Inactive
Emax (human mAChR M1 [2]): 2%

[2H]C([2H])([2H])Oc1ccc(-c2ccc(CN3C(=O)c4cccnc4C3([2H])[2H])c(F)c2)c2cn(C)nc12 [Compound 107, 6-(2-fluoro-4-(7-(methoxy-d3)-2-methyl-2H-indazol-4-yl)benzyl)-6,7-dihydro-5H-pyrrolo[3,4-b]pyridin-5-one-7,7-d2]
EC50 (human mAChR M1 [1]): 227 nM
Emax (human mAChR M1 [1]): 74%
EC50 (human mAChR M1 [2]): 5460 nM
Emax (human mAChR M1 [2]): 16%

[2H]C1([2H])c2ncccc2C(=O)N1Cc1ccc(-c2ccc(OCC)c3nn(C)cc23)cc1F [Compound 108, 6-(4-(7-ethoxy-2-methyl-2H-indazol-4-yl)-2-fluorobenzyl)-6,7-dihydro-5H-pyrrolo[3,4-b]pyridin-5-one-7,7-d2]
EC50 (human mAChR M1 [1]): 381 nM
Emax (human mAChR M1 [1]): 74%
Agonist Activity Human M1 EC50 (human mAChR M1 [2]): Inactive
Emax (human mAChR M1 [2]): 8%

[2H]C1([2H])c2ncccc2C(=O)N1Cc1ccc(-c2ccc(OC(C)C)c3nn(C)cc23)cc1F [Compound 109, 6-(2-fluoro-4-(7-isopropoxy-2-methyl-2H-indazol-4-yl)benzyl)-6,7-dihydro-5H-pyrrolo[3,4-b]pyridin-5-one-7,7-d2]
EC50 (human mAChR M1 [1]): 167 nM
Emax (human mAChR M1 [1]): 73%
EC50 (human mAChR M1 [2]): 5430 nM
Emax (human mAChR M1 [2]): 17%

[2H]C1([2H])c2ncccc2C(=O)N1Cc1ccc(-c2ccc(OC(F)(F)F)c3nn(C)cc23)cc1F [Compound 110, 6-(2-fluoro-4-(2-methyl-7-(trifluoromethoxy)-2H-indazol-4-yl)benzyl)-6,7-dihydro-5H-pyrrolo[3,4-b]pyridin-5-one-7,7-d2]
EC50 (human mAChR M1 [1]): 1440 nM
Emax (human mAChR M1 [1]): 71%
Agonist Activity Human M1 EC50 (human mAChR M1 [2]): Inactive
Emax (human mAChR M1 [2]): 4%

[2H]C([2H])([2H])Oc1cnc2c(c1)C(=O)N(Cc1ccc(-c3ccc4nn(C)cc4c3)cc1F)C2([2H])[2H] [Compound 111, 6-(2-fluoro-4-(2-methyl-2H-indazol-5-yl)benzyl)-3-(methoxy-d3)-6,7-dihydro-5H-pyrrolo[3,4-b]pyridin-5-one-7,7-d2]
EC50 (human mAChR M1 [1]): 161 nM
Emax (human mAChR M1 [1]): 65%
Agonist Activity Human M1 EC50 (human mAChR M1 [2]): Inactive
Emax (human mAChR M1 [2]): 2%

[2H]C([2H])([2H])Oc1cnc2c(c1)C(=O)N(Cc1c(F)cc(-c3ccc4nn(C)cc4c3)cc1F)C2([2H])[2H] [Compound 112, 6-(2,6-difluoro-4-(2-methyl-2H-indazol-5-yl)benzyl)-3-(methoxy-d3)-6,7-dihydro-5H-pyrrolo[3,4-b]pyridin-5-one-7,7-d2]
EC50 (human mAChR M1 [1]): 76 nM
Emax (human mAChR M1 [1]): 63%
Agonist Activity Human M1 EC50 (human mAChR M1 [2]): Inactive
Emax (human mAChR M1 [2]): 2%

[2H]C1([2H])c2ncccc2C(=O)N1Cc1c(F)cc(-c2ccc(OCCOC)c3nn(C)cc23)cc1F [Compound 113, 6-(2,6-difluoro-4-(7-(2-methoxyethoxy)-2-methyl-2H-indazol-4-yl)benzyl)-6,7-dihydro-5H-pyrrolo[3,4-b]pyridin-5-one-7,7-d2]
EC50 (human mAChR M1 [1]): 188 nM
Emax (human mAChR M1 [1]): 75%
EC50 (human mAChR M1 [2]): 5870 nM
Emax (human mAChR M1 [2]): 41%

[2H]C1([2H])c2ncccc2C(=O)N1Cc1c(F)cc(-c2ccc(OCCOC)c3nn(C([2H])([2H])[2H])cc23)cc1F [Compound 114, 6-(2,6-difluoro-4-(7-(2-methoxyethoxy)-2-(methyl-d3)-2H-indazol-4-yl)benzyl)-6,7-dihydro-5H-pyrrolo[3,4-b]pyridin-5-one-7,7-d2]
EC50 (human mAChR M1 [1]): 162 nM
Emax (human mAChR M1 [1]): 77%
EC50 (human mAChR M1 [2]): 8010 nM
Emax (human mAChR M1 [2]): 43%

[2H]C1([2H])c2ncccc2C(=O)N1Cc1c(F)cc(-c2cnc3nn(C([2H])([2H])[2H])cc3c2)cc1F [Compound 115, 6-(2,6-difluoro-4-(2-(methyl-d3)-2H-pyrazolo[3,4-b]pyridin-5-yl)benzyl)-6,7-dihydro-5H-pyrrolo[3,4-b]pyridin-5-one-7,7-d2]
EC50 (human mAChR M1 [1]): 680 nM
Emax (human mAChR M1 [1]): 68%
Agonist Activity Human M1 EC50 (human mAChR M1 [2]): Inactive
Emax (human mAChR M1 [2]): 6%

[2H]C1([2H])c2ncccc2C(=O)N1Cc1ccc(-c2ccc(OCCOC)c3nn(C)cc23)cc1F [Compound 116, 6-(2-fluoro-4-(7-(2-methoxyethoxy)-2-methyl-2H-indazol-4-yl)benzyl)-6,7-dihydro-5H-pyrrolo[3,4-b]pyridin-5-one-7,7-d2]
EC50 (human mAChR M1 [1]): 287 nM
Emax (human mAChR M1 [1]): 72%
EC50 (human mAChR M1 [2]): 9430 nM
Emax (human mAChR M1 [2]): 21%

[2H]C1([2H])c2ncccc2C(=O)N1Cc1ccc(-c2ccc(OCCOC)c3nn(C([2H])([2H])[2H])cc23)cc1F [Compound 117, 6-(2-fluoro-4-(7-(2-methoxyethoxy)-2-(methyl-d3)-2H-indazol-4-yl)benzyl)-6,7-dihydro-5H-pyrrolo[3,4-b]pyridin-5-one-7,7-d2]
EC50 (human mAChR M1 [1]): 317 nM
Emax (human mAChR M1 [1]): 70%
EC50 (human mAChR M1 [2]): ≥ 10000 nM
Emax (human mAChR M1 [2]): 21%

[2H]C1([2H])c2ncccc2C(=O)N1Cc1ccc(-c2cnc3nn(C([2H])([2H])[2H])cc3c2)cc1F [Compound 118, 6-(2-fluoro-4-(2-(methyl-d3)-2H-pyrazolo[3,4-b]pyridin-5-yl)benzyl)-6,7-dihydro-5H-pyrrolo[3,4-b]pyridin-5-one-7,7-d2]
EC50 (human mAChR M1 [1]): 527 nM
Emax (human mAChR M1 [1]): 66%
EC50 (human mAChR M1 [2]): ≥ 10000 nM
Emax (human mAChR M1 [2]): 16%

[2H]C1([2H])c2ncccc2C(=O)N1Cc1c(F)cc(-c2cncc3nn(C)cc23)cc1F [Compound 119, 6-(2,6-difluoro-4-(2-methyl-2H-pyrazolo[3,4-c]pyridin-4-yl)benzyl)-6,7-dihydro-5H-pyrrolo[3,4-b]pyridin-5-one-7,7-d2]
EC50 (human mAChR M1 [1]): ≥ 10000 nM
Emax (human mAChR M1 [1]): 63%
Agonist Activity Human M1 EC50 (human mAChR M1 [2]): Inactive
Emax (human mAChR M1 [2]): 3%

[2H]C1([2H])c2ncccc2C(=O)N1Cc1ccc(-c2cncc3nn(C)cc23)cc1F [Compound 120, 6-(2-fluoro-4-(2-methyl-2H-pyrazolo[3,4-c]pyridin-4-yl)benzyl)-6,7-dihydro-5H-pyrrolo[3,4-b]pyridin-5-one-7,7-d2]
EC50 (human mAChR M1 [1]): 2820 nM
Emax (human mAChR M1 [1]): 66%
Agonist Activity Human M1 EC50 (human mAChR M1 [2]): Inactive
Emax (human mAChR M1 [2]): 2%

[2H]C1([2H])c2ncccc2C(=O)N1Cc1c(F)cc(-c2cnc(OC)c3nn(C)cc23)cc1F [Compound 121, 6-(2,6-difluoro-4-(7-methoxy-2-methyl-2H-pyrazolo[3,4-c]pyridin-4-yl)benzyl)-6,7-dihydro-5H-pyrrolo[3,4-b]pyridin-5-one-7,7-d2]
EC50 (human mAChR M1 [1]): 2920 nM
Emax (human mAChR M1 [1]): 55%
Agonist Activity Human M1 EC50 (human mAChR M1 [2]): Inactive
Emax (human mAChR M1 [2]): 3%

[2H]C1([2H])c2ncccc2C(=O)N1Cc1c(F)cc(-c2ccc(C3CC3)c3nn(C)cc23)cc1F [Compound 122, 6-(4-(7-cyclopropyl-2-methyl-2H-indazol-4-yl)-2,6-difluorobenzyl)-6,7-dihydro-5H-pyrrolo[3,4-b]pyridin-5-one-7,7-d2]
EC50 (human mAChR M1 [1]): 789 nM
Emax (human mAChR M1 [1]): 77%
Agonist Activity Human M1 EC50 (human mAChR M1 [2]): Inactive
Emax (human mAChR M1 [2]): 3%

[2H]C1([2H])c2ncccc2C(=O)N1Cc1c(F)cc(-c2ccc(C(F)F)c3nn(C)cc23)cc1F [Compound 123, 6-(4-(7-(difluoromethyl)-2-methyl-2H-indazol-4-yl)-2,6-difluorobenzyl)-6,7-dihydro-5H-pyrrolo[3,4-b]pyridin-5-one-7,7-d2]
EC50 (human mAChR M1 [1]): 490 nM
Emax (human mAChR M1 [1]): 80%
EC50 (human mAChR M1 [2]): 7930 nM
Emax (human mAChR M1 [2]): 11%

[2H]C1([2H])c2ncccc2C(=O)N1Cc1c(F)cc(-c2ccc(OC3CC3)c3nn(C)cc23)cc1F [Compound 124, 6-(4-(7-cyclopropoxy-2-methyl-2H-indazol-4-yl)-2,6-difluorobenzyl)-6,7-dihydro-5H-pyrrolo[3,4-b]pyridin-5-one-7,7-d2]
EC50 (human mAChR M1 [1]): 243 nM
Emax (human mAChR M1 [1]): 74%
EC50 (human mAChR M1 [2]): 8270 nM
Emax (human mAChR M1 [2]): 32%

[2H]C1([2H])c2ncccc2C(=O)N1Cc1c(F)cc(-c2ccc(OC3CCC3)c3nn(C)cc23)cc1F [Compound 125, 6-(4-(7-cyclobutoxy-2-methyl-2H-indazol-4-yl)-2,6-difluorobenzyl)-6,7-dihydro-5H-pyrrolo[3,4-b]pyridin-5-one-7,7-d2]
EC50 (human mAChR M1 [1]): 382 nM
Emax (human mAChR M1 [1]): 72%
EC50 (human mAChR M1 [2]): ≥ 10000 nM
Emax (human mAChR M1 [2]): 14%
